Literature values, collected in patent publication US20110160154A1, “SUBSTITUTED PIPERAZINES” (Auspex Pharmaceuticals, Inc., priority 2007, published 2011).

Columns and labels:
[1] = test system: late sodium current (INa); details: literature value (Antzelevitch et al. 2004); read-out: IC50 for inhibition of late sodium current (INa)
[2] = background statement; ranolazine must be taken frequently

IC50 [1]: 5 to 21 µM | half-life [2]: less than two
Structure (SMILES): COc1ccccc1OCC(O)CN1CCN(CC(=O)Nc2c(C)cccc2C)CC1 (centres unmarked) [ranolazine, N-(2,6-dimethyl-phenyl)-2-{4-[2-hydroxy-3-(2-methoxy-phenoxy)-propyl]-piperazin-1-yl}-acetamide]
